How the values were obtained:
[1] = target: ETB (h) (Homo sapiens, UniProt P24530); assay: competitive radioligand binding assay, ETB (h) (agonist radioligand)
[2] = system: P2X; assay: competitive radioligand binding assay, P2X (agonist radioligand); conditions: 10 μM
[3] = target: ETA (h) (Homo sapiens, UniProt P25101); assay: competitive radioligand binding assay, ETA (h) (agonist radioligand)
[4] = target: CCK1 (CCKA) (h) (Homo sapiens, UniProt P32238); assay: competitive radioligand binding assay, CCK1 (CCKA) (h) (agonist radioligand)
[5] = target: norepinephrine transporter (h) (Homo sapiens, UniProt P23975); assay: competitive radioligand binding assay, norepinephrine transporter (h) (antagonist radioligand)
[6] = Distribution in plasma, brain and prostate after single IV administration in rats; format: in vivo; conditions: single IV 2 mg/kg
[7] = target: D1 (h) (Homo sapiens, UniProt P21728); assay: competitive radioligand binding assay, D1 (h) (antagonist radioligand)
[8] = target: β2 (h) (Homo sapiens, UniProt P07550); assay: competitive radioligand binding assay, β2 (h) (agonist radioligand)
[9] = system: KATP channel; assay: competitive radioligand binding assay, KATP channel (antagonist radioligand); conditions: 10 μM
[10] = target: H2 (h) (Homo sapiens, UniProt P25021); assay: competitive radioligand binding assay, H2 (h) (antagonist radioligand)
[11] = system: LnCAP cells; assay: Inhibition of DHT-stimulated proliferation of LnCAP cells; format: cell-based, human
Procedure: The expression of PSA was measured in the culture medium 24 hours thereafter (FIG. 1). […] The LnCAP cells were cultured for a further 5 days and the number of viable cells was then calculated.
FIG. 2. Inhibition of DHT-stimulated proliferation of LnCAP cells.

[12] = system: KV channel; assay: competitive radioligand binding assay, KV channel (antagonist radioligand); conditions: 10 μM
[13] = system: CYP 3A; assay: CYP 3A induction assay; format: in vitro ADME
[14] = target: T1, rat AR ligand-binding domain (Rattus norvegicus, UniProt P15207); assay: Competitive-binding assay vs AR ligand Fluormone (PolarScreen Androgen Receptor Competitor Assay, fluorescence polarization)
T1 construct: purchased Invitrogen PV4293
Procedure: Binding to rat AR ligand-binding domain was measured in competition with fluorescently labeled AR ligand Fluormone™ using a commercial assay kit and fluorescence polarization as a read-out.
FIG. 3. Competitive-binding assay vs AR ligand Fluormone™ (PolarScreen™ Androgen Receptor Competitor Assay, Invitrogen, cat. #PV4293).

[15] = system: 5-HT (non-selective); assay: competitive radioligand binding assay, 5-HT (non-selective) (agonist radioligand); conditions: 10 μM
[16] = system: Ca2+ channel (L, diltiazem site) (benzothiazepines); assay: competitive radioligand binding assay, Ca2+ channel (L, diltiazem site) (benzothiazepines) (antagonist radioligand); conditions: 10 μM
[17] = system: SKCa channel; assay: competitive radioligand binding assay, SKCa channel (antagonist radioligand); conditions: 10 μM
[18] = target: dopamine transporter (h) (Homo sapiens, UniProt Q01959); assay: competitive radioligand binding assay, dopamine transporter (h) (antagonist radioligand)
[19] = target: NK1 (h) (Homo sapiens, UniProt P25103); assay: competitive radioligand binding assay, NK1 (h) (agonist radioligand)
[20] = target: IP (PGI2) (h) (Homo sapiens, UniProt P43119); assay: competitive radioligand binding assay, IP (PGI2) (h) (agonist radioligand)
[21] = system: Ca2+channel (L, verapamil site) (phenylalkylamine); assay: competitive radioligand binding assay, Ca2+channel (L, verapamil site) (phenylalkylamine) (antagonist radioligand); conditions: 10 μM
[22] = target: N neuronal α4β2 (h) (Homo sapiens, UniProt P17787+P43681); assay: competitive radioligand binding assay, N neuronal α4β2 (h) (agonist radioligand)
[23] = target: PPARγ (h) (Homo sapiens, UniProt P37231); assay: competitive radioligand binding assay, PPARγ (h) (agonist radioligand)
[24] = target: β1 (h) (Homo sapiens, UniProt P08588); assay: competitive radioligand binding assay, β1 (h) (agonist radioligand)
[25] = system: kainate; assay: competitive radioligand binding assay, kainate (agonist radioligand); conditions: 10 μM
[26] = Maximum tolerated dose, peroral once a day for 5 days in CD1 male mice; format: in vivo
Procedure: The maximum tolerated doses (MTD) of novel antagonists (R)-1 and their analog Ia were determined in experiments on CD1 male mice at peroral administration once a day for 5 days in doses of 10, 30, and 100 mg/kg. The compound was dissolved in sterile water with addition of Tween 80. Sterile water with Tween 80 was given to control animals (Placebo group). Animals' body weight and mortality rate were estimated. Statistical comparison of groups was carried out according to a non-parametric ANOVA test using Statistica software.

[27] = target: V1 a (h) (Homo sapiens, UniProt P37288); assay: competitive radioligand binding assay, V1 a (h) (agonist radioligand)
[28] = target: BLT1 (LTB4) (h) (Homo sapiens, UniProt Q15722); assay: competitive radioligand binding assay, BLT1 (LTB4) (h) (agonist radioligand)
[29] = system: ER (non-selective) (h); assay: competitive radioligand binding assay, ER (non-selective) (h) (agonist radioligand); set-up: species or system human; conditions: 10 μM
[30] = target: NK2 (h) (Homo sapiens, UniProt P21452); assay: competitive radioligand binding assay, NK2 (h) (agonist radioligand)
[31] = target: CysLT1 (LTD4) (h) (Homo sapiens, UniProt Q9Y271); assay: competitive radioligand binding assay, CysLT1 (LTD4) (h) (agonist radioligand)
[32] = target: AT2 (h) (Homo sapiens, UniProt P50052); assay: competitive radioligand binding assay, AT2 (h) (agonist radioligand)
[33] = system: P2Y; assay: competitive radioligand binding assay, P2Y (agonist radioligand); conditions: 10 μM
[34] = target: AT1 (h) (Homo sapiens, UniProt P30556); assay: competitive radioligand binding assay, AT1 (h) (antagonist radioligand)

For CNC(=O)c1ccc(N2C(=S)N(c3ccc(C#N)c(C(F)(F)F)c3)C(=O)[C@]23CCOC3)cc1F [(R)-1, 4-[(R)-3-(4-cyano-3-trifluoromethyl-phenyl)-4-oxo-2-thioxo-7-oxa-1,3-diaza-spiro[4.4]non-1-yl]-2-fluoro-N-methyl-benzamide], the inhibition at 10 µM [1] was -1.7%, the “% Inhibition” value [2] was 28.0% and the inhibition at 10 µM [3] was -2.5%. The inhibition at 10 µM [4] was 10.6%, the inhibition at 10 µM [5] was -1.1% and the concentration at 30 min ([6]; rat, plasma, 30 min, Mean ± SD, n = 3) was 746 ± 104 ng/mL. It also gave a concentration at 120 min ([6]; rat, plasma, 120 min, Mean ± SD, n = 3) of 522 ± 57 ng/mL, a Brain/Plasma ([6]; 30 min) of 0.19 ± 0.02 and a Prostate/Plasma ([6]; 30 min) of 1.55 ± 0.08. It also gave a Brain ([6]; 30 min, Mean ± SD, n = 3) of 145 ± 22 ng/g, a Plasma ([6]; 30 min, Mean ± SD, n = 3) of 746 ± 104 ng/mL and a Prostate ([6]; 30 min, Mean ± SD, n = 3) of 1159 ± 164 ng/g. For the same compound, the Brain/Plasma ([6]; 120 min) was 0.17 ± 0.35, the Prostate/Plasma ([6]; 120 min) was 1.20 ± 0.36 and the Brain ([6]; 120 min, Mean ± SD, n = 3) was 89 ± 10 ng/g. The Plasma ([6]; 120 min, Mean ± SD, n = 3) was 522 ± 57 ng/mL, the Prostate ([6]; 120 min, Mean ± SD, n = 3) was 625 ± 108 ng/g and the inhibition at 10 µM [7] was -2.4%. For the same compound, the inhibition at 10 µM [8] was -8%, the “% Inhibition” value [9] was −0.8% and the inhibition at 10 µM [10] was -2.6%. For the same compound, the IC50 ([11]; Homo sapiens, LNCaP, 120 h, read-out: IC50, inhibition of DHT-induced cell proliferation) was 0.03 µM, the “fold more efficient than III in inhibiting DHT-induced cell proliferation” value ([11]; LnCAP cells, versus III) was “around 8 fold” and the “fold more efficient than Ia in inhibiting DHT-induced cell proliferation” value ([11]; LnCAP cells, versus Ia) was “around 6 fold”. For the same compound, the “% Inhibition” value [12] was −10.1%, the “Positive control, % (CYP 3A induction)” value ([13]; Concentration 1 μM) was 0.0 ± 2.0% and the “Positive control, % (CYP 3A induction)” value ([13]; Concentration 10 μM) was 42.0 ± 6.1%. For the same compound, the IC50 ([14]; rat AR ligand-binding domain, fluorescence polarization (FIG. 3)) was 7.9 µM, the “fold more efficient binding than Ia” value ([14]; versus Ia) was “around 2.1 fold” and the “% Inhibition” value [15] was −8.2%. The “% Inhibition” value [16] was −23.6%, the “% Inhibition” value [17] was −4.8% and the inhibition at 10 µM [18] was -0.3%. For the same compound, the inhibition at 10 µM [19] was 14.7%, the inhibition at 10 µM [20] was -7.3% and the “% Inhibition” value [21] was 4.0%. For the same compound, the inhibition at 10 µM [22] was 0.2%, the inhibition at 10 µM [23] was -19.2% and the inhibition at 10 µM [24] was 1.8%. The “% Inhibition” value [25] was 13.1%, the MTD at 5 days ([26]; CD1, mouse, in vivo, oral, male CD-1 mice, peroral once a day for 5 days) was > 100 mg/kg and the “body weight versus control animals (Placebo group)” value ([26]; CD1 male mice, peroral, 100 mg/kg) was “no statistical significance was observed”. The mortality ([26]; CD1 male mice, peroral, doses below 100 mg/kg (10 and 30 mg/kg)) was “did not lead to death”, the “toxicity compared with the (Ia) antagonist” value ([26]; male CD-1 mice, from MTD) was “more than three times less toxic” and the inhibition at 10 µM [27] was 12.3%. The inhibition at 10 µM [28] was 15.9%, the “% Inhibition” value [29] was −7.6% and the inhibition at 10 µM [30] was -8.7%. The inhibition at 10 µM [31] was -13.9%, the inhibition at 10 µM [32] was -6.2% and the “% Inhibition” value [33] was 33.3%. For the same compound, the inhibition at 10 µM [34] was 0.5%.
